Data from patent US11590116B2 (THERAVANCE BIOPHARMA R&D IP, LLC, priority 2019, dated 2023).

Experiments:
[1] = target: T1, recombinant human ALK5 (TGF-βR1) protein (Homo sapiens, UniProt P36897); experiment: Biochemical ALK5 (TGF-βR1) assay to measure pKi (LANCE Ultra ULight kinase assay); conditions: apparent pKi from pIC50 by Cheng-Prusoff, read-out: ALK5 pKi (converted)
T1 construct: purchased Life Technologies PR9075A
T1 sequence (P36897 34-503): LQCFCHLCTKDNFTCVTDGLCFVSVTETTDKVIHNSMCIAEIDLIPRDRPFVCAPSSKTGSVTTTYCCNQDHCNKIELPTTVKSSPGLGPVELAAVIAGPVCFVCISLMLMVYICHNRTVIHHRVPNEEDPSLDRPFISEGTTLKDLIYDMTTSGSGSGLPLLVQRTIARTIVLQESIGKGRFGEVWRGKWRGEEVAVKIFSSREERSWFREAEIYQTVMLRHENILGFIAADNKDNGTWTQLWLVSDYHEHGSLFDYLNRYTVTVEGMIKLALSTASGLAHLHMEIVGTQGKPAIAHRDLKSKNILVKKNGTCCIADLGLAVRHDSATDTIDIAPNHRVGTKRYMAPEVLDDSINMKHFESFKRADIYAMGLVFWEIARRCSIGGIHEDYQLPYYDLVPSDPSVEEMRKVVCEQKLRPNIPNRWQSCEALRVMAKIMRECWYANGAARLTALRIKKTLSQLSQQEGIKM
In short: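 After a 60 min room-temperature preincubation of ALK5 with compound, phosphorylation proceeds 60 min at 37 °C on ATP addition (125 μM as 5× stock). Detection: Eu-labelled phospho-Thr1342 Topo IIα antibody in EDTA buffer, pH 7.0; emission 665 nm.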

[2] = system: TGF-β-stimulated SMAD3 phosphorylation in BEAS-2B cells; experiment: Cellular ALK5 potency assay, inhibition of TGF-β stimulated pSMAD3 formation in BEAS-2B cells; format: cell-based; conditions: Homo sapiens; inhibition of TGF-β stimulated pSMAD3 formation, BEAS-2B cells; read-out: BEAS2B pIC50 (converted)
In short: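 pSMAD3 was quantified by AlphaLISA in BEAS-2B lysates after 10 ng/mL TGF-β (final) for 30 min. Before stimulation, cells received compound for 1 h at 37° C in supplemented HBSS. Values are pIC50, relative to TGF-β-stimulated cells without compound.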

Structure (SMILES)	Ki [1] [nM]	IC50 [2] [nM]
Cc1cccc(-c2[nH]cnc2-c2ccc3ncc(-c4cccc(C(=O)O[C@@H]5CCN(C)C5)c4)cc3c2)n1 [Compound 608, [(3R)-1-methylpyrrolidin-3-yl] 3-[6-[5-(6-methyl-2-pyridyl)-1H-imidazol-4-yl]-3-quinolyl]benzoate]	0.0398 to 0.316	25.1 to 158
Cc1cccc(-c2[nH]cnc2-c2ccc3ncc(-c4ccc5c(c4)CNCC5)cc3c2)n1 [Compound 609, 6-[5-(6-methyl-2-pyridyl)-1H-imidazol-4-yl]-3-(1,2,3,4-tetrahydroisoquinolin-7-yl)quinoline]	0.0398 to 0.316	< 20
Cc1cccc(-c2n[nH]cc2-c2ccc3ncc(NC(=O)C(F)(F)F)cc3n2)n1 [Compound 610, 2,2,2-trifluoro-N-[6-[3-(6-methyl-2-pyridyl)-1H-pyrazol-4-yl]-1,5-naphthyridin-3-yl]acetamide]	0.0398 to 0.316	25.1 to 158
Cc1nc(-c2n[nH]cc2-c2ccc3ncc(-c4nc5c([nH]4)CCNCC5)cc3n2)ccc1F [Compound 611, 2-[6-[3-(5-fluoro-6-methyl-2-pyridyl)-1H-pyrazol-4-yl]-1,5-naphthyridin-3-yl]-1,4,5,6,7,8-hexahydroimidazo[4,5-d]azepine]	< 0.0316	1580 to 10000
Cc1cccc(-c2n[nH]cc2-c2ccc3ncc(-c4cc[nH]n4)cc3n2)n1 [Compound 612, 2-[3-(6-methyl-2-pyridyl)-1H-pyrazol-4-yl]-7-(1H-pyrazol-3-yl)-1,5-naphthyridine]	0.0398 to 0.316	25.1 to 158
COC(=O)N1CCc2nnc(-c3cnc4ccc(-c5c[nH]nc5-c5cccc(C)n5)nc4c3)cc2C1 [Compound 613, methyl 3-[6-[3-(6-methyl-2-pyridyl)-1H-pyrazol-4-yl]-1,5-naphthyridin-3-yl]-7,8-dihydro-5H-pyrido[4,3-c]pyridazine-6-carboxylate]	0.0398 to 0.316	25.1 to 158
CNC1CN(c2cnc3ccc(-c4nc[nH]c4-c4cccc(C)n4)cc3c2)C1 [Compound 614, N-methyl-1-[6-[5-(6-methyl-2-pyridyl)-1H-imidazol-4-yl]-3-quinolyl]azetidin-3-amine]	0.0398 to 0.316	25.1 to 158
Cc1cccc(-c2n[nH]cc2-c2ccc3ncc(CCCN4CCN(C(C)C)CC4)cc3n2)n1 [Compound 615, 7-[3-(4-isopropylpiperazin-1-yl)propyl]-2-[3-(6-methyl-2-pyridyl)-1H-pyrazol-4-yl]-1,5-naphthyridine]	0.0398 to 0.316	25.1 to 158
Cc1cccc(-c2[nH]cnc2-c2ccc3ncc(-c4ccc(C(=O)OC5CNC5)nc4)cc3c2)n1 [Compound 616, azetidin-3-yl 5-[6-[5-(6-methyl-2-pyridyl)-1H-imidazol-4-yl]-3-quinolyl]pyridine-2-carboxylate]	0.0398 to 0.316	25.1 to 158
Cc1cccc(-c2n[nH]cc2-c2ccc3ncc(N4CCC(C)(O)CC4)cc3n2)n1 [Compound 617, 4-methyl-1-[6-[3-(6-methyl-2-pyridyl)-1H-pyrazol-4-yl]-1,5-naphthyridin-3-yl]piperidin-4-ol]	< 0.0316	< 20
Cc1cccc(-c2[nH]cnc2-c2ccc3ncc(NC(=O)C4CCNC4)cc3c2)n1 (centres unmarked) [Compound 618, N-[6-[5-(6-methyl-2-pyridyl)-1H-imidazol-4-yl]-3-quinolyl]pyrrolidine-3-carboxamide]	0.0398 to 0.316	200 to 1260
Cc1cccc(-c2n[nH]cc2-c2ccc3ncc(NCCN4CCN(C)CC4)cc3n2)n1 [Compound 619, N-[2-(4-methylpiperazin-1-yl)ethyl]-6-[3-(6-methyl-2-pyridyl)-1H-pyrazol-4-yl]-1,5-naphthyridin-3-amine]	0.0398 to 0.316	25.1 to 158
Cc1nc(-c2nc3ccccn3c2-c2ccc3ncc(NCCN4CCN(C(C)C)CC4)cc3c2)ccc1F [Compound 620, 6-[2-(5-fluoro-6-methyl-2-pyridyl)imidazo[1,2-a]pyridin-3-yl]-N-[2-(4-isopropylpiperazin-1-yl)ethyl]quinolin-3-amine]	0.0398 to 0.316	25.1 to 158
Cc1cccc(-c2[nH]nnc2-c2ccc3ncc(NCCN4CCN(C(C)C)CC4)cc3c2)n1 [Compound 621, N-(2-(4-isopropylpiperazin-1-yl)ethyl)-6-(5-(6-methylpyridin-2-yl)-1H-1,2,3-triazol-4-yl)quinolin-3-amine]	0.0398 to 0.316	25.1 to 158
Cc1cccc(-c2n[nH]cc2-c2ccc3ncc(-c4[nH]nc5c4CCNC5)cc3n2)n1 [Compound 622, 2-[3-(6-methyl-2-pyridyl)-1H-pyrazol-4-yl]-7-(4,5,6,7-tetrahydro-2H-pyrazolo[3,4-c]pyridin-3-yl)-1,5-naphthyridine]	0.0398 to 0.316	200 to 1260
Cc1cccc(-c2[nH]cnc2-c2ccc3ncc(NCCN4CCC[C@H](N)C4)cc3c2)n1 [Compound 623, N-[2-[(3S)-3-amino-1-piperidyl]ethyl]-6-[5-(6-methyl-2-pyridyl)-1H-imidazol-4-yl]quinolin-3-amine]	0.0398 to 0.316	200 to 1260
Cc1cccc(-c2[nH]cnc2-c2ccc3ncc(N4CC5(CC(N)C5)C4)cc3c2)n1 [Compound 624, 2-[6-[5-(6-methyl-2-pyridyl)-1H-imidazol-4-yl]-3-quinolyl]-2-azaspiro[3.3]heptan-6-amine]	0.0398 to 0.316	25.1 to 158
Cc1cccc(-c2n[nH]cc2-c2ccc3ncc(NC(=O)CN4CCN(C(C)C)CC4)cc3n2)n1 [Compound 625, 2-(4-isopropylpiperazin-1-yl)-N-[6-[3-(6-methyl-2-pyridyl)-1H-pyrazol-4-yl]-1,5-naphthyridin-3-yl]acetamide]	0.0398 to 0.316	25.1 to 158
Cc1cccc(-c2n[nH]cc2-c2ccc3ncc(N4CCC(N)C4)cc3n2)n1 (centres unmarked) [Compound 626, 1-[6-[3-(6-methyl-2-pyridyl)-1H-pyrazol-4-yl]-1,5-naphthyridin-3-yl]pyrrolidin-3-amine]	< 0.0316	25.1 to 158
Cc1cccc(-c2[nH]cnc2-c2ccc3ncc(NCCN4CCCC4(C)C)cc3n2)n1 [Compound 627, N-[2-(2,2-dimethylpyrrolidin-1-yl)ethyl]-6-[5-(6-methyl-2-pyridyl)-1H-imidazol-4-yl]-1,5-naphthyridin-3-amine]	0.0398 to 0.316	25.1 to 158
CNCCn1cc(-c2cnc3ccc(-c4c(-c5cccc(C)n5)nnn4C)cc3c2)cn1 [Compound 628, N-methyl-2-(4-(6-(1-methyl-4-(6-methylpyridin-2-yl)-1H-1,2,3-triazol-5-yl)quinolin-3-yl)-1H-pyrazol-1-yl)ethan-1-amine]	< 0.0316	25.1 to 158
Cc1cccc(-c2[nH]cnc2-c2ccc3ncc(C4=CCC(N(C)C)CC4)cc3c2)n1 (centres unmarked) [Compound 629, N,N-dimethyl-4-(6-(5-(6-methylpyridin-2-yl)-1H-imidazol-4-yl)quinolin-3-yl)cyclohex-3-en-1-amine]	< 0.0316	25.1 to 158
CNCCn1cc(-c2cnc3ccc(-c4c(-c5cccc(C)n5)nnn4CC(=O)O)nc3c2)cn1 [Compound 630, 2-[5-[7-[1-[2-(methylamino)ethyl]pyrazol-4-yl]-1,5-naphthyridin-2-yl]-4-(6-methyl-2-pyridyl)triazol-1-yl]acetic acid]	0.398 to 3.16	1580 to 10000
Cc1nc(-c2n[nH]cc2-c2ccc3ncc(-c4nnc5n4CCNC5)cc3n2)ccc1F [Compound 631, 2-[3-(5-fluoro-6-methyl-2-pyridyl)-1H-pyrazol-4-yl]-7-(5,6,7,8-tetrahydro-[1,2,4]triazolo[4,3-a]pyrazin-3-yl)-1,5-naphthyridine]	3.98 to 31.6	1580 to 10000
CNCCn1cc(-c2cnc3ccc(-c4c(-c5cccc(C)n5)nn5c4NCC5)cc3c2)cn1 [Compound 632, N-methyl-2-[4-[6-[6-(6-methyl-2-pyridyl)-2,3-dihydro-1H-imidazo[1,2-b]pyrazol-7-yl]-3-quinolyl]pyrazol-1-yl]ethanamine]	0.0398 to 0.316	25.1 to 158
Cc1cccc(-c2n[nH]cc2-c2ccc3ncc(CNCCN4CCOCC4)cc3n2)n1 [Compound 633, N-[[6-[3-(6-methyl-2-pyridyl)-1H-pyrazol-4-yl]-1,5-naphthyridin-3-yl]methyl]-2-morpholino-ethanamine]	0.398 to 3.16	25.1 to 158
CNCCn1cc(-c2cnc3ccc(-c4c[nH]nc4-c4ccc(F)c(C)n4)cc3c2)cn1 [Compound 634, 2-[4-[6-[3-(5-fluoro-6-methyl-2-pyridyl)-1H-pyrazol-4-yl]-3-quinolyl]pyrazol-1-yl]-N-methyl-ethanamine]	< 0.0316	< 20
Cc1cccc(-c2nc3n(c2-c2ccc4ncc(-c5cn[nH]c5)cc4c2)CCNC3)n1 [Compound 635, 6-(2-(6-methylpyridin-2-yl)-5,6,7,8-tetrahydroimidazo[1,2-a]pyrazin-3-yl)-3-(1H-pyrazol-4-yl)quinoline]	0.0398 to 0.316	200 to 1260
